According to patent US12582624B2, “Co-crystal of gabapentin, ketoprofen and lysine, pharmaceutical compositions and their medical use” (DOMPÉ FARMACEUTICI S.P.A., priority 2020, dated 2026):

Columns and labels:
[1] = cited from earlier work
[2] = in vivo; details: male, Sprague Dawley, rat, po
From the text: Aim of the study was the determination of the brain penetration of Gabapentin in KLS-Gabapentin Co-crystal compared to the physical mixture of KLS and so Gabapentin and Gabapentin alone after administration in capsules in the rats.
Sprague Dawley male rat (body weights 310 gr at the time of the treatment) were used in this study. The animals were originally supplied by Harlan, Italy. Once receipt from the supplier, the animals were subjected to health examinations and acceptance. The animals were housed, in a group of three, in cages suitable for the species and were routinely kept in the following environment except for short periods of time where experimental procedures dictated otherwise. The animals were acclimatized to local housing conditions for approximately 5 days.
The experimental protocol consisted in the blood and brain tissue sampling on the animals according to the following Tables 12 and 13 and analysis of samples as described below.
Stock solutions of Ketoprofen and Gabapentin were prepared at 1 mg/mL in MeOH and a mix stock solution was prepared by dilution of the two mentioned before to reach a final concentration of 100 μg/mL of each analyte. Stock solutions of DF1681Y and Gabapentin Impurity A were prepared respectively at 2 mg/mL and 1 mg/mL in MeOH. A mixture of the two was prepared in ACN with a final so concentration of 5000 and 500 ng/mL respectively (mix IS). […]

[3] = test system: carrageenan-induced rat paw edema; test: Carrageenan-induced rat paw edema test; type: in vivo
Protocol: Inflammatory pain in rats induced by carrageenan intraplantar injection Male Wistar rats (270-280 g) (Envigo, Italy), were housed 2-3 per cage under controlled illumination (12:12 h light:dark cycle; light on 06.00 h) and standard environmental conditions (room temperature 22±1° C., humidity 60±10%) for at least 1 week before experimental use. Rat chow and tap water were available ad libitum. The procedures were approved by the Animal Ethics Committee of University of Campania “Luigi Vanvitelli”. Animal care was in compliance with Italian Legislative Decree (D.L. 116/92) and European Commission Directive (O.J. of E.C. L358/1, 18/12/86) regulations on the protection of laboratory animals. All efforts were made to minimize animal suffering and the number of animals used.
Peripheral inflammatory pain was induced in the left hind paw of each animal by a single intraplantar injection of 1% A-carrageenan (100 μl for each rat in 0.9% NaCl). […] Edema was expressed as the mean increase in paw volume (ml) relative to control animals. The percentage inhibition of edema was calculated by the following equation: % inhibition of edema=(Vc−Vt/Vc)×100, where Vc is the edema volume in the control group and Vt is the edema volume in treated group.

[4] = in vivo; cited from earlier work
[5] = cited from earlier work; remark: listed apart in the source

Row | Compound | pKa [1] | Kp at 2 h [2] | Activity on inflammatory pain ([3]; Carrageenan inflammatory rat model) | Effect on carrageenan-evoked edema ([3]; FIGS. 13 and 15, oral, rat) | Side effect: ataxia [4] [%] | Side effect: dizziness [4] [%] | Side effect: fatigue [4] [%] | Side effect: somnolence [4] [%] | Time to utmost level in plasma ([5]; after oral administration) [h] | Plasma protein binding ([5]; in vivo) | Excretion half-life ([5]; renal excretion)
1 | CC(C(=O)O)c1cccc(C(=O)c2ccccc2)c1 (racemic) [Ketoprofen, (RS)-2-(3-benzoylphenyl)-propionic acid] | 4.08 | – | – | – | – | – | – | – | – | – | –
2 | NCC1(CC(=O)O)CCCCC1 [Gabapentin] | – | 0.378 | little active | less effective | 13 | 18 | 11 | 20 | 3 to 4 | does not attach to plasma proteins | roughly 6 hours
